Source: patent US6417199B1, “3-benzyl-benzothiophenes” (Eli Lilly and Company, priority 1995, dated 2002)

What was measured:
[1] = system: MCF-7 breast adenocarcinoma cells; assay: MCF-7 Proliferation Assay; assay type: cell-based; details: Homo sapiens, MCF7; MCF-7 cells, 48 hours with drug, tritiated thymidine incorporation; read-out: ED50 (the source's name)
Description: MCF-7 breast adenocarcinoma cells (ATCC HTB 22) were maintained in MEM (minimal essential medium, phenol red-free, Sigma, St. Louis, Mo.) supplimented with 10% fetal bovine serum (FBS) (V/V), L-glutamine (2 mM), sodium pyruvate (1 mM), HEPES {(N-[2-hydroxyethyl]piperazine-N′-[2-ethanesulfonic acid]10 mM}, non-essential amino acids and bovine insulin (1 ug/mL) (maintenance medium). Ten days prior to assay, MCF-7 cells were switched to maintenance medium supplemented with 10% dextran coated charcoal stripped fetal bovine serum (DCC-FBS) assay medium) in place of 10% FBS to deplete internal stores of steroids. MCF-7 cells were removed from maintenance flasks using cell dissociation medium (Ca++/Mg++ free HBSS (phenol red-free) supplemented with 10 mM HEPES and 2 mM EDTA). Cells were say medium and adjusted to 80,000 cells/mL. Approximately 100 μL (8,000 cells) were added to flat-bottom microculture wells (Costar 3596) and incubated at 37° C. in a 5% CO2 humidified incubator for 48 hours to allow for cell adherence and equilbration after transfer. Serial dilutions of drugs or DSMO as a diluent control were prepared in assay medium and 50 μL transferred to triplicate microcultures followed by 50 μL assay medium for a final volume of 200 μL. After an additional 48 hours at 37° C. in a 5% CO2 humidified incubator, microcultures were pulsed with tritiated thymidine (1 uCi/well) for 4 hours. Cultures were terminated by freezing at −70° C. for 24 hours followed by thawing and harvesting of microcultures using a Skatron Semiautomatic Cell Harvester. Samples were counted by liquid scintillation using a Wallac BetaPlace β counter. Results in Table 2 below show the ED50 for certain compounds of the present invention.

[2] = system: Serum Cholesterol; assay: Serum cholesterol in ovariectomized rat post-menopausal model; assay type: in vivo, Sprague Dawley rats; details: ovariectomized rats, dosed orally daily for 4 days; for ED50: Rattus norvegicus, po, 96 h
Description: In the examples illustrating the methods, a post-menopausal model was used in which effects of different treatments upon circulating lipids were determined.
Seventy-five day old female Sprague Dawley rats (weight range of 200 to 225 g) are obtained from Charles River Laboratories (Portage, Mich.). The animals are either bilaterally ovariectomized (OVX) or exposed to a Sham surgical procedure at Charles River Laboratories, and then shipped after one week. Upon arrival, they are housed in metal hanging cages in groups of 3 or 4 per cage and had ad libitum access to food (calcium content approximately 0.5%) and water for one week. Room temperature is maintained at 22.2°±1.7° C. with a minimum relative humidity of 40%. The photoperiod in the room was 12 hours light and 12 hours dark.
Dosing Reaimen Tissue Collection. After a one week acclimation period (therefore, two weeks post-OVX) daily dosing with test compound is initiated. 17α-ethynyl estradiol or the test compound is given orally, unless otherwise stated, as a suspension in 1% carboxymethylcellulose or dissolved in 20% cyclodextrin. Animals are dosed daily for 4 days. Following the dosing regimen, animals are weighed and anesthetized with a ketamine: xylazine (2:1, V:V) mixture and a blood sample is collected by cardiac puncture. The animals are then sacrificed by asphyxiation with CO2, the uterus is removed through a midline incision, and a wet uterine weight is determined.
Cholesterol Analysis. Blood samples are allowed to clot at room temperature for 2 hours, and serum is obtained following centrifugation for 10 minutes at 3000 rpm. Serum cholesterol is determined using a Boehringer Mannheim Diagnostics high performance cholesterol assay. Briefly the cholesterol is oxidized to cholest-4-en-3-one and hydrogen peroxide. The hydrogen peroxide is then reacted with phenol and 4-aminophenazone in the presence of peroxidase to produce a p-quinone imine dye, which is read spectrophotemetrically at 500 nm. Cholesterol concentration is then calculated against a standard curve. The entire assay is automated using a Biomek Automated Workstation.
Data presented in Table 1 below show results when rats were treated with certain compounds of the present invention. The compounds of the present invention generally reduce serum cholesterol compared to the ovariectomized control animals.

| Compound | EC50 [1] [nM] | ED50 [2] [mg/kg] | Serum Cholesterol ED50 (mg/kg) [2] |
| --- | --- | --- | --- |
| CC(C)OC(c1ccc(OCCN2CCCCC2)cc1)c1c(-c2ccc(O)cc2)sc2cc(O)ccc12 (centres unmarked) [Example 4] | 10 | 4.1 |  |
| CCCCOC(c1ccc(OCCN2CCCCC2)cc1)c1c(-c2ccc(O)cc2)sc2cc(O)ccc12 (centres unmarked) [Example 5] | 1.5 | 2.5 |  |
| Oc1ccc(C2Sc3cc(O)ccc3C2C(OCc2ccccc2)c2ccc(OCCN3CCCCC3)cc2)cc1 (centres unmarked) [Example 6] | 0.5 | 10 |  |
| N#CCCOC(c1ccc(OCCN2CCCCC2)cc1)c1c(-c2ccc(O)cc2)sc2cc(O)ccc12 (centres unmarked) [Example 7] | 7 | 2.4 |  |
| CCSC(c1ccc(OCCN2CCCCC2)cc1)c1c(-c2ccc(O)cc2)sc2cc(O)ccc12 (centres unmarked) [Example 10] | 1.2 | 1.7 |  |
| CNC(c1ccc(OCCN2CCCCC2)cc1)c1c(-c2ccc(O)cc2)sc2cc(O)ccc12 (centres unmarked) [Example 12] | 4 | 0.8 |  |
| N#CC(c1ccc(OCCN2CCCCC2)cc1)c1c(-c2ccc(O)cc2)sc2cc(O)ccc12 (centres unmarked) [Example 13] | 0.8 | 0.8 |  |
| NC(c1ccc(OCCN2CCCCC2)cc1)c1c(-c2ccc(O)cc2)sc2cc(O)ccc12 (centres unmarked) [Example 14] | 6 | 5.7 |  |
| CCN(CC)C(c1ccc(OCCN2CCCCC2)cc1)c1c(-c2ccc(O)cc2)sc2cc(O)ccc12 (centres unmarked) [Example 15] | 7 | 3.8 |  |
| Oc1ccc(-c2sc3cc(O)ccc3c2C(c2ccc(OCCN3CCCCC3)cc2)N2CCCC2)cc1 (centres unmarked) [Example 16] | 15 | 10 |  |
| OCCNC(c1ccc(OCCN2CCCCC2)cc1)c1c(-c2ccc(O)cc2)sc2cc(O)ccc12 (centres unmarked) [Example 18] | 90 |  | N.A. at 10.0; |
| Oc1ccc(-c2sc3cc(O)ccc3c2C(NN2CCCCC2)c2ccc(OCCN3CCCCC3)cc2)cc1 (centres unmarked) [Example 20] | 7 | 10 |  |

More lines, main results first:

| EC50 [1] [nM] | Compound | ED50 [2] [mg/kg] | Serum Cholesterol ED50 (mg/kg) [2] |
| --- | --- | --- | --- |
| 0.8 | COC(c1ccc(OCCN2CCCCC2)cc1)c1c(-c2ccc(O)cc2)sc2cc(O)ccc12 (centres unmarked) [Example 1] | 3.5 |  |
| 3 | CCOC(c1ccc(OCCN2CCCCC2)cc1)c1c(-c2ccc(O)cc2)sc2cc(O)ccc12 (centres unmarked) [Example 2] | 10 |  |
| 2 | CCCOC(c1ccc(OCCN2CCCCC2)cc1)c1c(-c2ccc(O)cc2)sc2cc(O)ccc12 (centres unmarked) [Example 3] | 10 |  |
| 20 | OCCOC(c1ccc(OCCN2CCCCC2)cc1)c1c(-c2ccc(O)cc2)sc2cc(O)ccc12 (centres unmarked) [Example 8] | 2.9 |  |
| 3 | CSC(c1ccc(OCCN2CCCCC2)cc1)c1c(-c2ccc(O)cc2)sc2cc(O)ccc12 (centres unmarked) [Example 9] | 5.1 |  |
| 20 | CN(C)C(c1ccc(OCCN2CCCCC2)cc1)c1c(-c2ccc(O)cc2)sc2cc(O)ccc12 (centres unmarked) [Example 11] | 0.1 |  |
| 30 | Oc1ccc(-c2sc3cc(O)ccc3c2C(c2ccc(OCCN3CCCCC3)cc2)N2CCCCCC2)cc1 (centres unmarked) [Example 17] | 10 |  |
